Test results from patent US20240109934A1, “ANTIBIOTICS WITH IMPROVED DRUG RESISTANCE PROFILE” (priority 2021, published 2024).

Experiments:
[1] = tested on: human foreskin fibroblasts (HFF-1); assay: Cell viability, Alamar Blue assay; type: cell-based; conditions: 72 h incubation, error SEM n = 2, listed as FA(1), read-out: IC50, Mammalian Toxicity in HFF-1
Method: Cell Culture. HFF-1 cells were obtained from ATCC. HFF-1 cells were grown in DMEM with 15% fetal bovine serum (Gemini Benchmark, Cat #100-106), 100 U/mL penicillin, and 100 μg/mL streptomycin. All cells were cultured at 37° C. in a 5% CO2 environment. Media was prepared by the University of Illinois School of Chemical Sciences Cell Media Facility.
Cell Viability. Cells were harvested, seeded in a 96 well-plate and allowed to adhere. Cells were treated with investigational compounds in DMSO (1% final concentration). Cells were incubated for 72 h before viability was assessed by the Alamar Blue Assay. Raptinal ([…]) was used as a dead control.

[2] = cited from earlier work
S. aureus ATCC 29213 = assay: Resistance frequency, large inoculum method; type: cell-based
Method: Selection of Resistant Mutants. Resistant mutants were selected via the large inoculum method. Briefly, S. aureus ATCC 29213 (1×10^9 CFU) were plated on 100 mm plates of LB agar containing 4, 2, 1, 0.5, and 0.25 μg/mL.

Mouse MTD / tolerability = conditions: mice
Method: The protocol was approved by the IACUC at the University of Illinois at Urbana-Champaign (Protocol Number: 16144 and 19181). In these studies, 10- to 12-week-old female C57BL/6 mice purchased from Charles River were used. The maximum tolerated dose (MTD) of single compound was determined first. […] All the mice were monitored for signs of toxicity for 2 weeks. For multiple doses, the compound was given by daily IP for 4 consecutive days, and mice were monitored for signs of toxicity for 1 month. MTD was the highest dosage with acceptable toxicity (e.g., <20% weight loss).

For `CC(=O)O[C@H]1C[C@@]2(C)[C@@H](C[C@@H](O)[C@H]3[C@@]4(C)CC[C@@H](O)[C@@H](C)[C@@H]4CC[C@@]32C)/C1=C(\CCC=C(C)C)C(=O)O` [FA, Fusidic acid], the IC50 [1] is given as 146 ± 11 µM, the Half-life in humans ([2]; in vivo) is given as 10 to 14 h and the “Cmax (drug plasma level)” value ([2]; patients, front-loading regimen 3 g first day, 1.2 g daily thereafter) is given as “greater than 130 μg/mL”.

In the case of `CC(=O)O[C@H]1C[C@@]2(C)[C@@H](C[C@@H](O)[C@H]3[C@@]4(C)CC[C@@H](O)[C@@H](C)[C@@H]4CC[C@@]32C)/C1=C(\CCC=C1CCCC1)C(=O)O` [FA-CP, (Z)-2-((3R,4S,5S,8S,9S,10S,11R,13R,14S,16S)-16-acetoxy-3,11-dihydroxy-4,8,10,14-tetramethylhexadecahydro-17H-cyclopenta[a]phenanthren-17-ylidene)-5-cyclopentylidenepentanoic acid], the “Resistance frequency relative to FA” value (S. aureus ATCC 29213; at 2× and 32× the MIC) is reported as “modest improvement in resistance frequency”, the “Resistance frequency relative to FA” value (S. aureus ATCC 29213; head-to-head with FA, 2×-32× the MIC) is reported as “improvement in resistance frequency relative to FA” and the Tolerability (Mouse MTD / tolerability; 50 mg/kg IP once-a-day for 4 consecutive days) is reported as “well tolerated”. For the same compound, the Tolerability (Mouse MTD / tolerability; single dose of 50 mg/kg, IP injection) was “well tolerated”.
